Test results published in PMC12020424, “Identification and Validation of Cyclic Peptides with Mucin-Selective, Location-Specific Binding in the Gastrointestinal Tract” (ACS Nano, 2025).
Bridge positions count the residues as written; N and C are the ends. Ends that are not written are not given here.

What was measured:
MUC2 = MUC2 (Homo sapiens, UniProt Q02817); test: Phage ELISA on MUC2; assay type: binding; conditions: phage clones displaying the peptide, 10^7 PFU/μL, MUC2-coated plate, anti-M13/HRP, TMB, 450 nm, blank subtracted, three wells; vs random library and insertless phage
Excerpt: We next sought to validate the binding efficiency of these identified phage clones. We tested phage clones displaying peptides M2.1, M2.2, M2.3, and M2.4 for binding to MUC2, and phage clones displaying peptides M5.1, M5.2, M5.3, and M5.4 for binding to MUC5AC. We utilized a bacteriophage enzyme-linked immunosorbent assay to test the binding of the peptide hits to the specific target mucins, MUC2 and MUC5AC (Figure 2d). The spectrophotometer reported absorbance values at 450 nm. The intensity of the absorbance signal is proportional to the amount of peptide-mucin binding present in each sample. The negative controls (library samples and insertless samples) served as references for nonspecific binding.
First, mucin was coated onto the surface of a plastic plate overnight using the same process as that performed for the original phage display. The next morning, three wells of each phage clone were prepared, with each phage solution having a titer of 10^7 PFU/μL to ensure a fair comparison between the clones. […]
However, instead of eluting the bound phage, 100 μL of 1:2000 anti-M13/HRP mouse monoclonal antibody was added to each well, and the antibody was allowed to incubate with the wells for 30 min. […] The resulting solutions were analyzed by absorbance spectroscopy at a wavelength of 450 nm to determine the relative amount of phage present in each well.

[1] = system: MUC2-containing intestinal tissue (jejunal); test: Ex vivo fluorescent binding to small intestine tissue; design: species or system porcine; conditions: MUC2-selective peptides to small intestine; for Overall nanoparticle “score”: scaled between free AF647 (0) and WGA-AF647 (1), mean across trials n = 3; for Selectivity: score for MUC2 tissue / sum of scores for all mucins, n = 3
Excerpt: After identifying the peptide hits for each mucin, we tested their binding in an ex vivo setting (Figure S1), evaluating their interaction with mucin-containing porcine tissue and semiquantitatively representing it through fluorescent imaging (Figure 3a). The cyclic peptides were synthesized and conjugated to a fluorophore, Alexa Fluor 647 (AF647), at the N-terminus to allow fluorescent imaging to be used to semiquantitatively measure the peptides’ ex vivo tissue binding, compared to free AF647 and AF647 conjugated to wheat germ agglutinin (WGA), a known lectin for glycoproteins.[40] […] Porcine GI tissue was used due to its similarity in mucin expression compared to human GI tissue and its capacity to source large surface areas of tissue for experiments.[41],[42] Representative IVIS images are shown in Figure 3b-e, where the first four columns represent the four identified peptides (M2.1–M2.4 in Figure 3b,c, M5.1–M5.4 in Figure 3d,e), the fifth column represents WGA-AF647, and the sixth column represents AF647. The “score” results for the peptide ligands are presented in Figure 3f,g for the mucins of interest, with Tables S2–S5 and Figure S3 detailing results for the other tissues (the equation for calculating the “score” is found in the Materials and Methodssection). […] We also examined selectivity by incubating peptides on nontarget tissues. Figure 3h,i depicts the “selectivity” results for the MUC2-selective and MUC5AC-selective peptides, respectively. Selectivity was calculated by determining the ratio of the “score” for a particular mucin to the sum of the “scores” for all mucins (see the Materials and Methods section for the equation used).
The top-performing hits from phage display were tested on ex vivo segments of porcine mucin-containing tissues (jejunal, stomach, and esophageal tissues) obtained from local abattoirs or laboratory-maintained pigs. Tissue was used either immediately after acquisition or after storage at −80 °C; tissue was used at most 1 week after acquisition and storage at −80 °C. After acquisition and equilibration to room temperature, the tissue was washed twice with 25 mL (each) of cold 1× PBS to remove undigested food and other debris. After washing and cleaning, the tissue was mounted between two magnetic plates with holes corresponding to a 48-well plate, as previously described,[72] such that the luminal side of the tissue was facing up (Figure S1). After the tissue was mounted, the amount of peptide/protein corresponding to 40 μg of AF647 was suspended in 200 μL of 1× PBS and added to the wells created by the magnetic plates. This was done 3× for each formulation to perform the experiment in triplicate. In addition, plain 1× PBS was added to one well to serve as the background measurement. After the peptides were added, the plate setup was covered with aluminum foil and allowed to incubate for 1 h at room temperature with gentle agitation (50 rpm). After incubation, the nonbinding peptides were removed by pouring out the solutions onto a clean paper towel, and the setup was washed three times by adding 200 μL of 1× PBS to each well and gently agitating the setup for 30 s before removing the washing solution. After washing was complete, fluorescence imaging was performed using an IVIS Spectrum fluorescent imaging system (PerkinElmer), with an automatically calculated exposure time (usually ∼1 s), a 20 cm × 20 cm field of view, and an excitation/emission of 640/680 nm, respectively. The imaging results were analyzed using Living Image software to calculate the total fluorescence intensity for each well, and the results for each hit or control were averaged across different wells. The negative control used was unconjugated AF647, while the positive control was WGA-AF647, since WGA is a known lectin that binds glycoproteins.
To better account for tissue-to-tissue variability, the results for each trial were reported as scores rather than using the raw fluorescence intensity. […]

| Sequence | phage ELISA absorbance vs negative controls (MUC2) | Overall nanoparticle “score” [1] | Selectivity [1] |
| --- | --- | --- | --- |
| CAKHRIMLC (disulfide 1-9 (inferred)) [Peptide M2.1, CX7C cyclic peptide hit for MUC2; AF647 conjugated at N-terminus in ex vivo tests] | significantly higher absorbances than the two negative controls | 0.550 | 0.298 |
| CTDKASSSC (disulfide 1-9 (inferred)) [Peptide M2.2, CX7C cyclic peptide hit for MUC2] | significantly higher absorbances than the two negative controls | 0.243 | 0.396 |
